Measured values reported in ChEMBL document CHEMBL1142758, “Neuroprotective effects of naturally occurring biflavonoids” (2005).

Key:
Format in all cases: functional
[1] = Protective effect of compound on SNP-induced cell death in SH-SY5Y cells (concentration = 0.4 uM)
[2] = Protective effect of compound on Ab25 35-induced cell death in SH-SY5Y cells (concentration = 4 uM)
[3] = Protective effect of compound on Ab25 35-induced cell death in SH-SY5Y cells (concentration = 0.2 uM)
[4] = Protective effect of compound on SNP-induced cell death in SH-SY5Y cells (concentration = 10 uM)
[5] = Protective effect of compound on hydrogen peroxide-induced cell death in SH-SY5Y cells (concentration = 0.4 uM)
[6] = Protective effect of compound on hydrogen peroxide-induced cell death in SH-SY5Y cells (concentration = 10 uM)
[7] = Protective effects of test compounds on Ab25 35-induced cell death in SH-SY5Y cells (concentration = 10 uM)
[8] = Protective effect of compound on hydrogen peroxide-induced cell death in SH-SY5Y cells (concentration = 2 uM)
[9] = Protective effect of compound on SNP-induced cell death in SH-SY5Y cells (concentration = 2 uM)
[10] = Protective effect of compound on Ab25 35-induced cell death in SH-SY5Y cells (concentration = 10 uM)
[11] = Protective effect of test compound on SNP-induced cell death in SH-SY5Y cells (concentration = 2 uM)
[12] = Protective effect of test compound on SNP-induced cell death in SH-SY5Y cells (concentration = 10 uM)
[13] = Protective effect of test compound on SNP-induced cell death in SH-SY5Y cells (concentration = 0.4 uM)
[14] = Protective effect of test compound on Ab25 35-induced cell death in SH-SY5Y cells (concentration = 4 uM)
[15] = Protective effect of test compound on hydrogen peroxide-induced cell death in SH-SY5Y cells (concentration = 2 uM)
[16] = Protective effect of test compound on Ab25 35-induced cell death in SH-SY5Y cells (concentration = 10 uM)
[17] = Protective effect of test compound on Ab25 35-induced cell death in SH-SY5Y cells (concentration = 0.2 uM)
[18] = Protective effect of compound on compounds on SNP-induced cell death in SH-SY5Y cells (concentration = 0.4 uM)

Compound | Inhibition [1] | Inhibition [2] | Inhibition [3] | Inhibition [4] | Inhibition [5] | Inhibition [6] | Inhibition [7] | Inhibition [8] | Inhibition [9] | Inhibition [10] | Inhibition [11] | Inhibition [12] | Inhibition [13] | Inhibition [14] | Inhibition [15] | Inhibition [16] | Inhibition [17] | Inhibition [18]
COc1ccc(C2=CC(=O)C3C(O)=CC(O)=C(c4cc(-c5cc(=O)c6c(O)cc(OC)cc6o5)ccc4OC)C3O2)cc1 (stereo unspecified) | 28.5% | 38.1% | 27.1% | 4.6% | 39.5% | 69.5% | 35.1 µM | 52.1% | 8.1% |  |  |  |  |  |  |  |  | 
O=c1cc(-c2ccc(Oc3cc(-c4cc(=O)c5c(O)cc(O)cc5o4)ccc3O)cc2)oc2cc(O)cc(O)c12 [OCHNAFLAVONE] | 10% | -32.1% | -12.7% | 9.3% | -3.6% | -32.7% |  | -12.1% | 7.7% | -1.9% |  |  |  |  |  |  |  | 
COC1=CC2OC(c3ccc(O)cc3)=CC(=O)C2C(O)=C1Oc1ccc(-c2cc(=O)c3c(O)cc(O)cc3o2)cc1 (stereo unspecified) | -16% | 11% | 18% | -25% | -3.5% | 68.1% |  | 23.9% | -14.8% | -0.2% |  |  |  |  |  |  |  | 
O=C1C=C(c2ccc(O)cc2)OC2C(c3cc(-c4cc(=O)c5c(O)cc(O)cc5o4)ccc3O)=C(O)C=C(O)C12 (stereo unspecified) |  |  |  |  | 27% | 62% |  |  |  |  | 16.4 µM | 40.5 µM | 5.2 µM | 25.4 µM | 39.9 µM | 31.8 µM | 3.6 µM | 
COc1ccc(-c2cc(=O)c3c(O)cc(O)cc3o2)cc1C1=C(O)C=C(O)C2C(=O)C=C(c3ccc(O)cc3)OC12 (stereo unspecified) | 2.5% | 1.9% | 9.8% | 11% | 25.3% | 62.9% |  | 30.4% | 4.8% | -7.5% |  |  |  |  |  |  |  | 
O=C1C=C(c2ccc(O)cc2)OC2C=C(O)C(Oc3ccc(-c4cc(=O)c5c(O)cc(O)cc5o4)cc3)=C(O)C12 (stereo unspecified) | 2.5% | -19.9% | 8.7% | 15% | 7.8% | 56% |  | 19.8% | -9.4% | -10% |  |  |  |  |  |  |  | 
COc1ccc(C2=CC(=O)C3C(O)=CC(O)=C(c4cc(-c5cc(=O)c6c(O)cc(O)cc6o5)ccc4OC)C3O2)cc1 (stereo unspecified) | 6.9% | 59.1% | 19.7% | 23.5% | 40.1% | 55.1% |  | 28.7% | 10.5% | 43.8 µM |  |  |  |  |  |  |  | 
COc1ccc(-c2cc(=O)c3c(O)cc(O)cc3o2)cc1Oc1ccc(-c2cc(=O)c3c(O)cc(O)cc3o2)cc1 | 2.9% | 0.9% | 13% | 1.6% | 1.8% | 12.1% |  | -1.2% | 0.1% | 14.8% |  |  |  |  |  |  |  | 
COc1cc(O)c2c(=O)cc(-c3ccc(OC)c(C4=C(O)C=C(O)C5C(=O)C=C(c6ccc(O)cc6)OC45)c3)oc2c1 (stereo unspecified) |  | 43.6% | 29.5 µM | 32.4% | 11.3% | 35.7% |  | 12.2% | 7.8% | 5.6% |  |  |  |  |  |  |  | -0.1 µM
